Source: publication PMC10227015, “From a drug repositioning to a structure-based drug design approach to tackle acute lymphoblastic leukemia” (Nature Communications, 2023)
Where two headings read alike, the source gives them in different places.

Tests used:
[1] = tested on: CCRF-CEM cell line; experiment: CCRF-CEM proliferation, compound alone (nonspecific toxicity); type: cell-based, human; details: compound 10 µM alone, 72 h
Experimental: (§1) The dCK cellular assay was set up to assess the ability to inhibit dCK activity in a cellular model. The model was developed with a T-cell acute lymphoblastic leukemia cell line (CCRF-CEM), because of its high dependence on the SP, thus on dCK activity. Cellular assays were performed to assess the inhibition of cell proliferation under two conditions: (i) in the presence of the compound alone to determine the nonspecific effect on cells, independent of dCK (nonspecific toxicity) and (ii) in the presence of an inhibitor of the DNP to determine the ability of compounds to inhibit dCK and decrease tumor proliferation (activity on dCK). The inhibitor of the DNP chosen for the experiments was thymidine (dT), a physiological inhibitor of ribonucleotide reductase which arrests cell proliferation in phase S. The dTTP produced via thymidine kinase from dT acts as a RNR inhibitor by an allosteric regulation of the R1 subunit. The addition of the nucleoside deoxycytidine (dC) in the medium allows the rescue of cell proliferation by passing only through the salvage pathway, mediated by dCK. dC needs to be added exogenously to mimic physiological concentrations because it is not present in the cell culture medium, on the contrary to mouse model, in which it is naturally present in the serum. Therefore, cell proliferation under these conditions (+dT +dC) is dCK dependent and it is possible to determine the IC50 of dCK inhibitors on the inhibition of cell proliferation. Results are expressed as % cell proliferation relative to the control with DMSO.
(§2) The amount of reduced dye formed by metabolically active cells was quantified by its fluorescence measured at 560 nm (excitation) and 590 nm (emission) in a microplate reader (CLARIOstar, BMG Labtech). A blank well without cells was used as a background control. Each experiment was performed at least three times (with technical triplicates) and data are presented as the mean ± SD.

[2] = target: T1, dCK-C3S-S74E (Homo sapiens, UniProt P27707, form not given/S74E); experiment: Enzymatic assay (PK/LDH coupled), dC phosphorylation by dCK in the presence of UTP; type: biochemical; details: presence of UTP
Experimental: (§3) For enzymatic assays, cells were re-suspended in 20 mM TRIS, pH 8 500 mM NaCl, 0.1% BRIJ-35 and 5% glycerol buffer and one EDTA free anti-protease tablet was added (Roche). After sonication and centrifugation (30,000 × g), the supernatant was loaded on a 5 ml HisTrap FF column (GE healthcare) pre-equilibrated with 20 mM TRIS, pH 8, 500 mM NaCl, 0.01% BRIJ-35 and 5% glycerol buffer. The protein was then eluted by the same buffer containing 250 mM imidazole after a wash containing 25 mM imidazole. The eluted fraction was applied on a HiPrep 26/10 desalting column (GE healthcare) pre-equilibrated with 20 mM TRIS, pH 8, 500 mM NaCl, 5% glycerol and 0.01% BRIJ-35 buffer. Finally, protein in a 20% glycerol buffer was flash frozen in liquid nitrogen and stored at −80 °C.
(§4) Kinetic analyses were performed using a spectrophotometric continuous enzymatic-coupled assay using pyruvate kinase (PK) and lactate dehydrogenase (LDH). […] UTP is the physiological dCK-phosphate donor[46] and it was used to determine activation versus inhibition behavior. ATP was used to calculate IC50 values, as it allows the analysis of a dose response curve. The PK/LDH coupled assay is based on the conversion of phosphoenolpyruvate (PEP) and UDP/ADP to pyruvate and UTP/ATP by PK and the subsequent conversion of pyruvate to lactate by LDH. The latter step requires NADH, which is oxidized to NAD^+. NADH is fluorescent (excitation at 337 nm and emission at 460 nm), but not NAD^+. Thus, the measurement of fluorescent decrease at 460 nm is a measure of kinase activity. dCK experiments were performed in a buffer containing 50 mM HEPES, pH 7.5, 5 mM MgCl2, 1 mM DTT, and 100 mM KCl. Buffer was supplemented with PK (0.01 U/µl), LDH (0.02 U/µl), PEP (1 mM), NADH (300 µM) and compounds at varying concentrations. For UTP assays, protein concentration was 2 μM, substrate 200 µM (dC), and UTP 1 mM. For ATP assays, protein concentration was 100 nM (and 50 nM when indicated), substrate 100 µM (dC), and ATP 1 mM. All measurements were performed on a microplate reader Pherastar FS (BMG Labtech). All assays were performed in triplicate and each experiment was performed at least twice. The data are presented as mean ± SD. The results were plotted as kinetics and the velocity was determined for each condition as the slope of the linear range of the curve. For each compound concentration, the velocity of the reaction (according to V = d[P]/dt) was normalized with respect to the drug free control and velocity ratios were compared. IC50 values corresponding to enzymatic inhibition in ATP were calculated by nonlinear regression curves using GraphPad Prism software 9.4.0.

[3] = target: T1, dCK-C3S-S74E; experiment: Enzymatic assay (PK/LDH coupled), dC phosphorylation by dCK in the presence of ATP; type: biochemical; details: read-out: ENZYMATIC ASSAY IC50; presence of ATP, [dCK] = 100 nM
Experimental: as §3
(§5) Kinetic analyses were performed using a spectrophotometric continuous enzymatic-coupled assay using pyruvate kinase (PK) and lactate dehydrogenase (LDH). Analysis of the effect of compounds on dCK-C3S-S74E activity was performed using dC as substrate and UTP/ATP as phosphate donors. UTP is the physiological dCK-phosphate donor[46] and it was used to determine activation versus inhibition behavior. ATP was used to calculate IC50 values, as it allows the analysis of a dose response curve. The PK/LDH coupled assay is based on the conversion of phosphoenolpyruvate (PEP) and UDP/ADP to pyruvate and UTP/ATP by PK and the subsequent conversion of pyruvate to lactate by LDH. The latter step requires NADH, which is oxidized to NAD^+. NADH is fluorescent (excitation at 337 nm and emission at 460 nm), but not NAD^+. Thus, the measurement of fluorescent decrease at 460 nm is a measure of kinase activity. dCK experiments were performed in a buffer containing 50 mM HEPES, pH 7.5, 5 mM MgCl2, 1 mM DTT, and 100 mM KCl. Buffer was supplemented with PK (0.01 U/µl), LDH (0.02 U/µl), PEP (1 mM), NADH (300 µM) and compounds at varying concentrations. For UTP assays, protein concentration was 2 μM, substrate 200 µM (dC), and UTP 1 mM. For ATP assays, protein concentration was 100 nM (and 50 nM when indicated), substrate 100 µM (dC), and ATP 1 mM. All measurements were performed on a microplate reader Pherastar FS (BMG Labtech). All assays were performed in triplicate and each experiment was performed at least twice. The data are presented as mean ± SD. The results were plotted as kinetics and the velocity was determined for each condition as the slope of the linear range of the curve. For each compound concentration, the velocity of the reaction (according to V = d[P]/dt) was normalized with respect to the drug free control and velocity ratios were compared. IC50 values corresponding to enzymatic inhibition in ATP were calculated by nonlinear regression curves using GraphPad Prism software 9.4.0.

[4] = tested on: CCRF-CEM cell line; experiment: dCK cellular assay: CCRF-CEM proliferation in the presence of dT and dC; type: cell-based, human; details: Homo sapiens
Experimental: as §1, §2

[5] = tested on: dCK-C3S-S74E; experiment: Enzymatic assay (PK/LDH coupled), dC phosphorylation by dCK in the presence of UTP; type: biochemical, human; details: presence of UTP
Experimental: as §3, §4

[6] = target: dCK-C3S-S74E; experiment: Enzymatic assay (PK/LDH coupled), dC phosphorylation by dCK in the presence of ATP; type: biochemical, human; details: presence of ATP, [dCK] = 50 nM (footnote A); read-out: ENZYMATIC ASSAY IC50
Experimental: as §3, §5

[7] = tested on: dCK-C3S-S74E; experiment: Thermal shift assay (TSA); details: for ΔTm (º) (TSA): Figure 2a, mean; for THERMAL SHIFT ASSAY +Tm (°): mean ± SD
[8] = Figure 2a, CCRF-CEM cell line, mean, read-out: IC50 (nM) (Cell Prolif)

T1 sequence (P27707 whole entry S74E, form open): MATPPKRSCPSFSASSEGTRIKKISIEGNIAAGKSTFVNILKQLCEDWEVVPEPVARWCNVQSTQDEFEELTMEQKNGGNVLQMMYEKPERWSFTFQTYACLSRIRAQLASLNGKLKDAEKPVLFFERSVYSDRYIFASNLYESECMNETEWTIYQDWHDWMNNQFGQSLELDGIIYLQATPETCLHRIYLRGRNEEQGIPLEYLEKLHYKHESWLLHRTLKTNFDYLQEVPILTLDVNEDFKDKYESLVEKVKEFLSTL
T1 sequence (P27707 whole entry S74E, form open): as above

SMILES	Cell proliferation of the CCRF-CEM cell line Mean (% prolif) [1] [%]	ENZYMATIC ASSAY (Activation/Inhibition) [2]	IC50 [3] [nM]	IC50 ([4]; read-out: dCK CELLULAR ASSAY IC50 (nM), CCRF-CEM, 200 µM dT and 1 µM dC, read-out: dCK […] ASSAY IC50) [nM]	ENZYMATIC ASSAY (Activation/Inhibition) [5]	IC50 [6] [nM]	ΔTm (º) (TSA) [7]	THERMAL SHIFT ASSAY +Tm (°) [7] [°]	IC50 [4, 8] [nM]
Cc1ccc(NC(=O)c2ccc(CN3CCN(C)CC3)cc2)cc1Nc1nc(-c2cccnc2)cs1 [Masitinib, masitinib, reference compound]	87.5								
CCCN(c1nc(-c2nccc(N)n2)cs1)c1cc(-c2ccc(OCC(=O)N3CCN(C)CC3)cc2)ccc1C [OR0597]		I	349 ± 89	220 ± 127					
CCCN(c1nc(-c2nc(N)cc(N)n2)cs1)c1cc(-c2ccc(C(=O)N3CCN(C)CC3)nc2)ccc1C [OR0612]					I	195 ± 16	16.58 º	16.6 ± 0.8	1000
Cc1ccc(-c2ccc(S(=O)(=O)N3CCN(C)CC3)cc2)cc1Nc1nc(-c2nc(N)cc(N)n2)cs1 [OR0614]					A/I	233 ± 83	18.1 º	18.1 ± 0.8	10000
CCCN(c1nc(-c2nc(N)cc(N)n2)cs1)c1cc(-c2ccc(S(N)(=O)=O)cc2)ccc1C [OR0615]					I	88 ± 68	17.5 º	17.5 ± 0.7	411
